From PMC7277860, “Viridistratins A−C, Antimicrobial and Cytotoxic Benzo[j]fluoranthenes from Stromata of Annulohypoxylon viridistratum (Hypoxylaceae, Ascomycota)” (Biomolecules, 2020) come the findings set out here.

For one data set, the system named is L929 (mouse fibroblasts). As to the kind of experiment: Cytotoxicity assay (MTT). It is filed as cell-based. To be noted: 5 days. The method, then: (§1) Compounds 1−5 were dissolved as described in the previous section. The cytotoxicity assay was initially performed against the cell lines L929 (mouse fibroblasts), as well as KB 3.1 (human papillomavirus-related endocervical adenocarcinoma), as described previously. A detailed protocol, as well as sources of the cell lines, is given in the Supporting Information.
(§2) After incubating the cell lines with a serial dilution of the test compounds (final range: 37 to 0.6 × 10^−3 µg/mL) for five days, the cells were dyed using 3-(4,5-dimethyl-2-thiazolyl)-2,5-diphenyl-2H-tetrazolium bromide (MTT), which is only converted to its purple formazan derivative by living cells. Then, the intensity of the purple derivative in relation to cells without additive (set to 100% viability) for each concentration of a test compound was quantified. For this, the absorption at 595 nm was measured using a microplate reader to calculate the percentage of cell viability. From this, the half-maximum inhibitory concentration (IC50, in µM) was calculated.
(§3) Protocol: Cytotoxicity Assay
(§4) The ass ay w as co nducted i n 9 6-well flat-bottom mi crotiter plates using the parameters summarised i n Tabl e S 2 and as described in [S2].
(§5) Cell lines L929 and KB 3.1 were incubated at 37 °C under 10 % CO2 in Gibco™ DMEM medium (Thermo Fisher Scientific, Waltham, MA, USA) supplemented with 10 % FBS. A microtiter plate was filled with 120 µL of this suspension (50,000/mL) in each well.
(§6) Seperately, another microtiter plate was filled with 100 µL of growth medium in each well. Then, 50 µL of the test compound sol utions (1 mg/mL) were given to wells of the first column in two replicates (one compound per row). C ell s wi thout addi ti ves, Me O H, and MeOH: DMSO 9+1 were used as negative controls. Starting from the first column, 50 µL of the solutions were gradually transferred to the ne xt col umn, the conte nts thoroughl y mi xed, and 50 µ L transferred to the following column. This created a serial dilution of the test compounds r anging from 333 µg/mL to 1.9 ×10−3 µg/mL. The remai ni ng 50 µL after column twelve were discarded. From this microtiter plate, 60 µL of the sol utions from 111 µg/ mL to 1.9×10−3 µg/mL were given to the first plate containing 120 µL of the cel l suspens i ons (i.e. the hi ghest concentrati on 333 µg/mL was not used). T his resulted i n fi nal compound concent rati ons rangi ng from […]
(§7) After 5 days of incubation under the aforeme ntioned i ncubati on condi ti ons, the half maximum inhibitory concentrati ons (IC 50) were determined using a colorimetric tetrazolium dye MTT assay [S3].
(§8) For this, 20 µL of a 5 mg/mL solution of 3-( 4 ,5 -dimethyl-2-thi azo l yl)-2 ,5 -di phenyl -2H-tetrazolium bromide (MTT) w ere added to each well and incubated for two hours at 37 °C. Then, the microtiter plate was centrifuged (3,000 r p m, 5 mi n) and the supernat ant remo ved by ho l di ng the pl ate upsi de-do wn and gentle shaking. Afterwards, the wells were washed using 100 µL of phosph ate buffered saline (PBS).
(§9) The plate was again centrifuged and the supernatant removed as described before. Then, 100 µL of an isopropanol:HCl solution (1L i sopropanol+4 mL HCl 37 % w/v) were added to the wells. After i ncubati ng fo r 10 mi n at ambi ent te mperature, the a bso r pti o n of the well s at 595 nm was measured wi th an I nfi ni te ® 200 Pro microplate reader (TECAN, Männedorf, Schweiz).
(§10) The absorption values of the cells without additives were averaged and set to 100 % cell viability.
(§11) Then, t he me ans of absorption of the two compound replicates were set in relation to the blank media.
(§12) These percentage values were plotted a gainst the concentration range (37 µg/mL to 0.6×10 −3 µg/mL).
(§13) The IC50 val ue w as read from the plot ( i n µg/mL) and the uni ts conversed to µM.
(§14) If effects were observed wi th cell lines L929 and KB 3.1 (IC50 < 50 µM), the other cell lines were tested using the same protocol.
(§15) Table S2: Cytotoxicity assay experiment parameters cell line type No. growth medium […]

Another data set in a line: Cytotoxicity assay (MTT). The format is cell-based. To be noted: for IC50: 5 days. The method, then: as §1, §2, §3, §4, §5, §6, §7, §8, §9, §10, §11, §12, §13, §14, §15
[1] abbreviates: human, KB 3.1 human endocervical adenocarcinoma cells.
Where [2] appears, read: mouse, L929 mouse fibroblast cells, L929 mouse fibroblasts.

Where two headings read alike, the source gives them in different places.

As to `O=C1C[C@H]2C(=C3CCC(=O)c4c(O)ccc2c43)c2cccc(O)c21` [Compound 4, truncatone A], the IC50 with L929 (mouse fibroblasts) (120 h, value in µg/mL, read-out: half-maximum inhibitory concentration (IC50)) came to 3.3 µg/mL; in the data set “Cytotoxicity assay (MTT)” (KB 3.1 human endocervical adenocarcinoma), 44 µM; in the data set “Cytotoxicity assay (MTT)” (L929 mouse fibroblasts), 10.4 µM.

Consider `O=C1CCC(=O)c2c1c(O)cc1c2-c2ccc(O)c3c(O)ccc-1c23` [Compound 5, truncatone C], for which the IC50 at 5 days in the data set “Cytotoxicity assay (MTT)” (setting [1]) turned out to be 30.1 µM; in the data set “Cytotoxicity assay (MTT)” (setting [2]), 16.3 µM.

As for `Oc1cccc2c3c(ccc12)-c1ccc(O)c2c(O)ccc-3c12` [Compound 1, viridistratin A], the IC50 in the data set with L929 (mouse fibroblasts) (Mus musculus, L929, 120 h, value in µg/mL, read-out: half-maximum inhibitory concentration (IC50)) was 8.5 µg/mL. Also, the IC50 at 5 days in “Cytotoxicity assay (MTT)” (setting [1]) worked out at 28.3 µM; in “Cytotoxicity assay (MTT)” (setting [2]), 12.7 µM.

Consider `COc1cccc2c3c(ccc12)-c1ccc(O)c2c(OC)ccc-3c12` [Compound 3, viridistratin C], for which the IC50 with L929 (mouse fibroblasts) (read-out: Cytotoxicity (IC50)) turned out to be 61 µM. The IC50 at 5 days in the data set “Cytotoxicity assay (MTT)” (setting [1]) and in the data set “Cytotoxicity assay (MTT)” (setting [2]) was greater than 50 µM throughout.

As for `COc1cccc2c3c(ccc12)-c1ccc(O)c2c(O)ccc-3c12` [Compound 2, viridistratin B], the IC50 at 5 days in the data set “Cytotoxicity assay (MTT)” (setting [1]) and in the data set “Cytotoxicity assay (MTT)” (setting [2]) was 17.2 µM in each case.
